Data reported in the NIST ThermoML archive (doi:10.1021/acs.jced.5b00903).
Numbers after ± are expanded uncertainties.

Conditions: surface light scattering

SMILES: CCCO [propan-1-ol]
- surface tension liquid-gas (298.15 K): 23.31 ± 0.24 mN/m
- surface tension liquid-gas (303.15 K): 22.9 ± 0.24 mN/m
- surface tension liquid-gas (308.15 K): 22.52 ± 0.23 mN/m
- surface tension liquid-gas (313.15 K): 22.1 ± 0.23 mN/m
- surface tension liquid-gas (318.15 K): 21.68 ± 0.22 mN/m
- surface tension liquid-gas (323.15 K): 21.27 ± 0.22 mN/m

SMILES: CCCCCO [pentan-1-ol]
- surface tension liquid-gas (298.15 K): 25.29 ± 0.28 mN/m
- surface tension liquid-gas (303.15 K): 24.87 ± 0.28 mN/m
- surface tension liquid-gas (308.15 K): 24.46 ± 0.27 mN/m
- surface tension liquid-gas (313.15 K): 24.05 ± 0.27 mN/m
- surface tension liquid-gas (318.15 K): 23.65 ± 0.26 mN/m
- surface tension liquid-gas (323.15 K): 23.21 ± 0.26 mN/m

SMILES: CCCCCCC [heptane]
- surface tension liquid-gas (293.15 K): 20.12 ± 0.23 mN/m
- surface tension liquid-gas (298.15 K): 19.69 ± 0.22 mN/m
- surface tension liquid-gas (303.15 K): 19.13 ± 0.21 mN/m
- surface tension liquid-gas (308.15 K): 18.67 ± 0.21 mN/m
- surface tension liquid-gas (313.15 K): 18.1 ± 0.2 mN/m
- surface tension liquid-gas (318.15 K): 17.7 ± 0.2 mN/m

SMILES: CCCCCCO [hexan-1-ol]
- surface tension liquid-gas (298.15 K): 25.56 ± 0.29 mN/m
- surface tension liquid-gas (303.15 K): 24.95 ± 0.28 mN/m
- surface tension liquid-gas (308.15 K): 24.65 ± 0.28 mN/m
- surface tension liquid-gas (313.15 K): 23.93 ± 0.27 mN/m
- surface tension liquid-gas (318.15 K): 23.58 ± 0.26 mN/m
- surface tension liquid-gas (323.15 K): 23.21 ± 0.26 mN/m
